Patent US11542240B2, “STK19 inhibitors for treatment of cancer” (TRUSTEES OF BOSTON UNIVERSITY, priority 2018, dated 2023)

What was measured:
[1] = target: G9a histone lysine methyltransferase (Homo sapiens (Human), UniProt Q96KQ7); test: in vitro methyltransferase assay, G9a enzyme activity; type: biochemical; details: read-out: IC50, inhibitory activity towards G9a histone lysine methyltransferase
[2] = target: panel of 468 diverse kinases (Homo sapiens, UniProt O95747); test: biochemical; type: binding; details: OSR1; 1000 nM; read-out: Percent Control
Chain of panel of 468 diverse kinases (Homo sapiens, UniProt O95747) (O95747 2-527 limits assumed): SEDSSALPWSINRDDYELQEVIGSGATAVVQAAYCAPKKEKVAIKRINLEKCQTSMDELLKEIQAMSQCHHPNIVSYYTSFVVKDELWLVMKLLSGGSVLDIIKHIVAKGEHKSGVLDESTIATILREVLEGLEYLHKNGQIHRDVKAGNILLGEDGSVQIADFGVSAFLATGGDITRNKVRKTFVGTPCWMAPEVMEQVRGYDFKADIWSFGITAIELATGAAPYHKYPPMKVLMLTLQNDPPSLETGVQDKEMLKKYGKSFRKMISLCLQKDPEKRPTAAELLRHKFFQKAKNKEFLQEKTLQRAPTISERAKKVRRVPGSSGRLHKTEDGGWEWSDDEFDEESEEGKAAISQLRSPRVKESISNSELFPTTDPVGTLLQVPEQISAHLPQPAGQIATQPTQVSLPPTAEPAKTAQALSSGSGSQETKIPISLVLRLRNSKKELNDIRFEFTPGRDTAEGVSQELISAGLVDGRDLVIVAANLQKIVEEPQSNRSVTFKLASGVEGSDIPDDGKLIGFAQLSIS

[3] = target: panel of 468 diverse kinases (Homo sapiens, UniProt P10721, V559D); test: biochemical; type: binding; details: KIT(V559D); 1000 nM; read-out: Percent Control
[4] = target: panel of 468 diverse kinases (Homo sapiens, UniProt P17612); test: biochemical; type: binding; details: PKAC-alpha; 1000 nM; read-out: Percent Control
[5] = target: panel of 468 diverse kinases (Homo sapiens, UniProt P21860); test: biochemical; type: binding; details: ERBB3; 1000 nM; read-out: Percent Control
[6] = target: panel of 468 diverse kinases (Homo sapiens, UniProt P27361); test: biochemical; type: binding; details: ERK1; 1000 nM; read-out: Percent Control
Chain of panel of 468 diverse kinases (Homo sapiens, UniProt P27361) (P27361 2-379 limits assumed): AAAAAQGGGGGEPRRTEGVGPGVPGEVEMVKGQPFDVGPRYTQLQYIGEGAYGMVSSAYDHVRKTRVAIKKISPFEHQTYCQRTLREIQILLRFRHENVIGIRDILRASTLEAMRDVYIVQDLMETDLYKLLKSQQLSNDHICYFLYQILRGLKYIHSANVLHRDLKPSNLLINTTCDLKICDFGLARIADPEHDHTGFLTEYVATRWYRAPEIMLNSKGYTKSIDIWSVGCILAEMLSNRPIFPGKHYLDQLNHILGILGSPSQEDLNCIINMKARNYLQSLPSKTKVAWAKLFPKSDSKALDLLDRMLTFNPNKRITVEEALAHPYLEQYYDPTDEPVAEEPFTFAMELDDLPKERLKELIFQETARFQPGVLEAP

[7] = target: panel of 468 diverse kinases (Homo sapiens, UniProt P30530); test: biochemical; type: binding; details: AXL; 1000 nM; read-out: Percent Control
Chain of panel of 468 diverse kinases (Homo sapiens, UniProt P30530) (P30530 26-894 limits assumed): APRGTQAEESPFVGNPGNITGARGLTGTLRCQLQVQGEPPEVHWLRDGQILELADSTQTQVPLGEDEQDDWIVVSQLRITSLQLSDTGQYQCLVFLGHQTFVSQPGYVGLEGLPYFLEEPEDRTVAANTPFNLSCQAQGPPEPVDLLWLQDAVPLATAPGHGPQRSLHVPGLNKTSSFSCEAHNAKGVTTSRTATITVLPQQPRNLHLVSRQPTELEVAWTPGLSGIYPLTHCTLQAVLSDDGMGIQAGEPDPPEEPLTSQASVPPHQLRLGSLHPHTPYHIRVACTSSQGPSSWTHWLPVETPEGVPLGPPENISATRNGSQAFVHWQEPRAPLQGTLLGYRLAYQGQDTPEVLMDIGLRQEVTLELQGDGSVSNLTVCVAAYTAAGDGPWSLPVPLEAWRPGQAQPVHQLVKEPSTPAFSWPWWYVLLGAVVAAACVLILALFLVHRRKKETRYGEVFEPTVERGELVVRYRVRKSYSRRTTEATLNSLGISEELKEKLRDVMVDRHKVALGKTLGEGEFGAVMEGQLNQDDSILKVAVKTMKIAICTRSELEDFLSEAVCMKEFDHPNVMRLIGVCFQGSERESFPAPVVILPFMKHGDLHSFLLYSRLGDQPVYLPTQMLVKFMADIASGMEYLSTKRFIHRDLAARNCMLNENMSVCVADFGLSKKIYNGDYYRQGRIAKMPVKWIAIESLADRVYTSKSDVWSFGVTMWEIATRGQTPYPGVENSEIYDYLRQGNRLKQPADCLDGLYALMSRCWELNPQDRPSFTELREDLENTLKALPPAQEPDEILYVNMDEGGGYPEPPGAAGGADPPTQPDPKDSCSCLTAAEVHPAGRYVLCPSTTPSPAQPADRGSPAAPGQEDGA

[8] = target: panel of 468 diverse kinases (Homo sapiens, UniProt P42336, E542K); test: biochemical; type: binding; details: PIK3CA(E542K); 1000 nM; read-out: Percent Control
[9] = target: panel of 468 diverse kinases (Homo sapiens, UniProt P45985); test: biochemical; type: binding; details: MEK4; 1000 nM; read-out: Percent Control
Chain of panel of 468 diverse kinases (Homo sapiens, UniProt P45985) (P45985 2-399 limits assumed): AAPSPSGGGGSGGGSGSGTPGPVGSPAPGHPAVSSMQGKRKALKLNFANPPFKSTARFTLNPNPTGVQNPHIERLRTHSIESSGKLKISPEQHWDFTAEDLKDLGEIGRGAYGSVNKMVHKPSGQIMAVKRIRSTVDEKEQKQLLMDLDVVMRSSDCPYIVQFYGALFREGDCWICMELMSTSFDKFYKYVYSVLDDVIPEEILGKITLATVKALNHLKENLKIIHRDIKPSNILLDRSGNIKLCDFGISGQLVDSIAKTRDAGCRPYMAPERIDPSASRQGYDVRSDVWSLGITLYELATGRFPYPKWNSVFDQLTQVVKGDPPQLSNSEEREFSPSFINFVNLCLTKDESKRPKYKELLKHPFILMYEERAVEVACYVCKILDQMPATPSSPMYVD

[10] = target: panel of 468 diverse kinases (Homo sapiens, UniProt P52564); test: biochemical; type: binding; details: MEK6; 1000 nM; read-out: Percent Control
[11] = target: panel of 468 diverse kinases (Homo sapiens, UniProt P53671); test: biochemical; type: binding; details: LIMK2; 1000 nM; read-out: Percent Control
[12] = target: panel of 468 diverse kinases (Homo sapiens, UniProt P54646); test: biochemical; type: binding; details: AMPK-alpha2; 1000 nM; read-out: Percent Control
[13] = target: panel of 468 diverse kinases (Homo sapiens, UniProt P54756); test: biochemical; type: binding; details: EPHA5; 1000 nM; read-out: Percent Control
Chain of panel of 468 diverse kinases (Homo sapiens, UniProt P54756) (P54756 25-1037 limits assumed): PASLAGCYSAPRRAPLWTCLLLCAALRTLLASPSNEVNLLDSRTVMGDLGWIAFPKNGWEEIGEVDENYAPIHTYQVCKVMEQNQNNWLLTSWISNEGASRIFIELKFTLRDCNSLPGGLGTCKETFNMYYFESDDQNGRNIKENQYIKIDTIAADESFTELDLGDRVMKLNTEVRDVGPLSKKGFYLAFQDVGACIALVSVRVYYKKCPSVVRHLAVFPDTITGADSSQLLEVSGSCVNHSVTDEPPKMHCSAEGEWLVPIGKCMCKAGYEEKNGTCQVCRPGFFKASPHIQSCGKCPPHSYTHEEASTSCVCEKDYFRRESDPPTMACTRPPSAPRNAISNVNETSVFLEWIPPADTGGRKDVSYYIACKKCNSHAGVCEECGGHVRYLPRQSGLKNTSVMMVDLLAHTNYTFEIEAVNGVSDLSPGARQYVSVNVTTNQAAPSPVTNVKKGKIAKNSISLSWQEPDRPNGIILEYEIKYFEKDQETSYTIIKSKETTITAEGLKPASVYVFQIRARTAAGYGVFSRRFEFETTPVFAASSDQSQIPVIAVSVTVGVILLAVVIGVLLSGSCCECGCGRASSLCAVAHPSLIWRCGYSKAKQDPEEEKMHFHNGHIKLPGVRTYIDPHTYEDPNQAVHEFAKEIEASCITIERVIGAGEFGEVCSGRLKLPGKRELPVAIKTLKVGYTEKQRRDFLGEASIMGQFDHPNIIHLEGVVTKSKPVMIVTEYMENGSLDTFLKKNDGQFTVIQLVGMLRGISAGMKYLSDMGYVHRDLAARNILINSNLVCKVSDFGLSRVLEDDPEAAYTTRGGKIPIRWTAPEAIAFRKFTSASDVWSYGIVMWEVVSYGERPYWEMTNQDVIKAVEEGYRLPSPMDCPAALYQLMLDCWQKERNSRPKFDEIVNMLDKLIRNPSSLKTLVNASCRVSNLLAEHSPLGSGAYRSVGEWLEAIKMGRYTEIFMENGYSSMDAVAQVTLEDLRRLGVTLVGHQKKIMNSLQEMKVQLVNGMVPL

[14] = target: panel of 468 diverse kinases (Homo sapiens, UniProt P54760); test: biochemical; type: binding; details: EPHB4; 1000 nM; read-out: Percent Control
[15] = target: panel of 468 diverse kinases (Homo sapiens, UniProt P54762); test: biochemical; type: binding; details: EPHB1; 1000 nM; read-out: Percent Control
[16] = target: panel of 468 diverse kinases (Homo sapiens, UniProt Q00536); test: biochemical; type: binding; details: PCTK1; 1000 nM; read-out: Percent Control
[17] = target: panel of 468 diverse kinases (Homo sapiens, UniProt Q00537); test: biochemical; type: binding; details: PCTK2; 1000 nM; read-out: Percent Control
[18] = target: panel of 468 diverse kinases (Homo sapiens, UniProt Q07002); test: biochemical; type: binding; details: PCTK3; 1000 nM; read-out: Percent Control
[19] = target: panel of 468 diverse kinases (Homo sapiens, UniProt Q13188); test: biochemical; type: binding; details: MST2; 1000 nM; read-out: Percent Control
[20] = target: panel of 468 diverse kinases (Homo sapiens, UniProt Q16288); test: biochemical; type: binding; details: TRKC; 1000 nM; read-out: Percent Control
[21] = target: panel of 468 diverse kinases (Homo sapiens, UniProt Q5S007); test: biochemical; type: binding; details: LRRK2; 1000 nM; read-out: Percent Control
[22] = target: panel of 468 diverse kinases (Homo sapiens, UniProt Q6DT37); test: biochemical; type: binding; details: DMPK2; 1000 nM; read-out: Percent Control
[23] = target: panel of 468 diverse kinases (Homo sapiens, UniProt Q6ZWH5); test: biochemical; type: binding; details: NEK10; 1000 nM; read-out: Percent Control
[24] = target: panel of 468 diverse kinases (Homo sapiens, UniProt Q86UX6); test: biochemical; type: binding; details: YANK3; 1000 nM; read-out: Percent Control
[25] = target: panel of 468 diverse kinases (Homo sapiens, UniProt Q8NE63); test: biochemical; type: binding; details: HIPK4; 1000 nM; read-out: Percent Control
[26] = target: panel of 468 diverse kinases (Homo sapiens, UniProt Q96PN8); test: biochemical; type: binding; details: TS SK3; 1000 nM; read-out: Percent Control
[27] = target: panel of 468 diverse kinases (Homo sapiens, UniProt Q99759); test: biochemical; type: binding; details: MAP3K3; 1000 nM; read-out: Percent Control
[28] = target: panel of 468 diverse kinases (Homo sapiens, UniProt Q9HCP0); test: biochemical; type: binding; details: CSNK1G1; 1000 nM; read-out: Percent Control
[29] = target: panel of 468 diverse kinases (Homo sapiens, UniProt Q9NY57); test: biochemical; type: binding; details: YANK2; 1000 nM; read-out: Percent Control
[30] = test system: hTERT/p53DD/CDK4(R24C) melanocytes; test: colony formation assay of NRASQ61R-expressing immortal melanocytes; type: cell-based, human; details: 3 μM IV
STK19D89N = STK19D89N (Homo sapiens (Human), UniProt P49842, D89N); test: STK19 kinase assay, D89N mutant; details: read-out: IC50 for STK19D89N
Chain of STK19D89N (P49842 other isoform, or with tags, fused parts or gaps D89N): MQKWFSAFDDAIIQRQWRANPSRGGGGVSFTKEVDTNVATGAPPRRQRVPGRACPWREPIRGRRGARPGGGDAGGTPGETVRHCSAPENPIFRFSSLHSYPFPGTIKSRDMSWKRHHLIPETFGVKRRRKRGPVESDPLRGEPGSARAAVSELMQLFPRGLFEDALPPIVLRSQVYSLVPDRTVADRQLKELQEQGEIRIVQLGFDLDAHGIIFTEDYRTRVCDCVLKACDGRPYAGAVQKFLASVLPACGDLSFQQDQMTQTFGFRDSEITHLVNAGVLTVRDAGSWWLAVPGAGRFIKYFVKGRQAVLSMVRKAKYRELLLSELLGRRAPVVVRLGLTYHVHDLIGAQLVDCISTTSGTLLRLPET
Method: Data are means±SD (n=3). […] ATP Km (app) was calculated by fitting the data with Michaelis-Menten equation. Data are means±SD (n=3). […] Data are means±SD relative to control group (n=3). […] Data are means±SD relative to control group (n=3). […] Data are means±SD relative to control groups (n=3). Body weight measurements of C57BL/6J mice treated with 0 or 25 mg/kg IV (BID) for 15 days. Data are means±SEM relative to control groups (n=8). H&E staining of tissues in C57BL/6J mice treated with 0 or 25 mg/kg IV (BID) for 15 days. Scale bar, 250 m.

Chain of G9a histone lysine methyltransferase (Q96KQ7 whole entry): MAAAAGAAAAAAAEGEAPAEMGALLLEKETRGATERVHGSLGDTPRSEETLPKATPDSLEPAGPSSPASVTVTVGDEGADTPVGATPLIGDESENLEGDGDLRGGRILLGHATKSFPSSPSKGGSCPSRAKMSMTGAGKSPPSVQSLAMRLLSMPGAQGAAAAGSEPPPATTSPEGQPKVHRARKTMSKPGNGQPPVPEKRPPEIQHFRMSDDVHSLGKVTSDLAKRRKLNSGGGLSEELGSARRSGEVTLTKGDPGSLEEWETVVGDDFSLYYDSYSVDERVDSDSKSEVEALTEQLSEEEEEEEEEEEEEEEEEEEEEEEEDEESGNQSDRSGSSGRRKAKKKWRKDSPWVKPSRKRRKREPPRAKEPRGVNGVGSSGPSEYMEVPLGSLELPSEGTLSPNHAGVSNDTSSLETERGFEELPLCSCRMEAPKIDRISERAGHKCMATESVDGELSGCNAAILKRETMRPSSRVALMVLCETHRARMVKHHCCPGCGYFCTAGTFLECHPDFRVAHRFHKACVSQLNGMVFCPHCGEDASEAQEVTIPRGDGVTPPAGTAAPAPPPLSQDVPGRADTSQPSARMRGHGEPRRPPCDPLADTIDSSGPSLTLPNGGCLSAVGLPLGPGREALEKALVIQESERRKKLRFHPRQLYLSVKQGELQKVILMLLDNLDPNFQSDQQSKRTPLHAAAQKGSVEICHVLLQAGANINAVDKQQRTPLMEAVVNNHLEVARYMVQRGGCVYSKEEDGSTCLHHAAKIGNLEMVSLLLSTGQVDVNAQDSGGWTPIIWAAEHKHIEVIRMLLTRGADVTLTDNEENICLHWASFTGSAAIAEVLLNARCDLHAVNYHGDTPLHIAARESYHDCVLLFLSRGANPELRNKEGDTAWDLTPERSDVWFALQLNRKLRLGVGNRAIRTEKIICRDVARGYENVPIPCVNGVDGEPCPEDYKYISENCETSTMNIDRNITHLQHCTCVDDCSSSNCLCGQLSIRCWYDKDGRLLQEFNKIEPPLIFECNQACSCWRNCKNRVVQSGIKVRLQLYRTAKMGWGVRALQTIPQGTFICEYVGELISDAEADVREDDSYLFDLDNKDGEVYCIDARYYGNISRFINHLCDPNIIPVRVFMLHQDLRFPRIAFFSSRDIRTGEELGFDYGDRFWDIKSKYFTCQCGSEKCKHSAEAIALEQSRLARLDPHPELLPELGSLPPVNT

COc1cc2nc(NC3CC3)nc(NC3CCN(C(C)C)CC3)c2cc1OC [Formula IV]
IC50 [1]: 467 nM
remaining activity at 1 µM [2]: 73%
remaining activity at 1 µM [3]: 100%
remaining activity at 1 µM [4]: 85%
remaining activity at 1 µM [5]: 100%
remaining activity at 1 µM [6]: 98%
remaining activity at 1 µM [7]: 94%
remaining activity at 1 µM [8]: 70%
remaining activity at 1 µM [9]: 84%
remaining activity at 1 µM [10]: 99%
remaining activity at 1 µM [11]: 96%
remaining activity at 1 µM [12]: 93%
remaining activity at 1 µM [13]: 86%
remaining activity at 1 µM [14]: 100%
remaining activity at 1 µM [15]: 89%
remaining activity at 1 µM [16]: 43%
remaining activity at 1 µM [17]: 94%
remaining activity at 1 µM [18]: 86%
remaining activity at 1 µM [19]: 100%
remaining activity at 1 µM [20]: 53%
remaining activity at 1 µM [21]: 71%
remaining activity at 1 µM [22]: 99%
remaining activity at 1 µM [23]: 50%
remaining activity at 1 µM [24]: 94%
remaining activity at 1 µM [25]: 91%
remaining activity at 1 µM [26]: 96%
remaining activity at 1 µM [27]: 55%
remaining activity at 1 µM [28]: 100%
remaining activity at 1 µM [29]: 56%
mutant NRAS/STK19-driven melanocyte colony formation [30]: significantly inhibited
IC50 (STK19D89N): 27.9 nM
